# Tests used:
# [1] = cited from earlier work; for pI: amino acid isoelectric point; for pKa (—COOH group) / pKa (—NH3 group): amino acid
# [2] = Spectrocolorimeter (CM-5) measurement of samples before and after adsorption and desorption measurement; format: physicochemical
# Procedure: Changes in the samples between before and after the measurement of the adsorption and desorption isotherms were measured using Konica Minolta, Inc.'s spectrocolorimeter (CM-5). The measurement conditions were reflection measurement and the SCI method, and the measurements were taken with the observation window of a 3-mm φ target mask covered with the glass container after the adsorption and desorption measurement. A blank tube, with no sample placed in it, was also subjected to the measurement, through which a measurement in a transparent state was determined. The measurements are converted values for a 10° field of view and a D65 light source.
# [3] = for State of sample after the end of the measurement: FIG. 2, after adsorption and desorption measurement; for Deliquescence: conclusion from isotherm and appearance; for Appearance after storage: tubes tightly closed, stored 9 days at normal temperature after measurement
# Procedure: For the measurement, MicrotracBEL (MicrotracBEL Corporation) BELSORP MAX III was used. As a pretreatment of samples, the samples were vacuum-dried at 105° C. until the leakage was 1 Pa/min or less.
# The measurement conditions were set as follows. • At relative pressures (humidity levels) from 0.025 to 0.3: measurements are taken at relative pressure intervals of 0.025 • At relative pressures (humidity levels) beyond 0.3 to 0.95: measurements are taken at relative pressure intervals of 0.05
# After reaching a relative pressure of 0.95: measurements are taken at equal relative pressure intervals until a relative pressure of 0.1 (For TSP, however, the relative pressure limit was set to approximately 0.5 because measurement accuracy is reduced due to a prolonged measurement time.)
# The equilibration conditions were that at relative pressures of 0.9 or lower, pressure changes should be 0.3% or smaller variations over 300 sec, and that at relative pressures of 0.9 or higher, pressure changes should be 0.3 Pa, as a pressure value, or smaller variations over 300 sec.
# [4] = after adsorption and desorption measurement
# [5] = before adsorption and desorption measurement
# [6] = 9 days after adsorption and desorption measurement
smiles,measurement,setting,value
C[C@H](N)C(=O)O [Alanine],pI,[1],6
same,pKa (—COOH group),[1],2.34
"N=C(N)NCCC[C@H](N)C(=O)O [Arginine, arginine]",L* (D65),[2]; [4],94.8
same,a* (D65),[2]; [4],−0.2
same,b* (D65),[2]; [4],0.1
same,L* (D65),[2]; [5],99.0
same,a* (D65),[2]; [5],−0.1
same,b* (D65),[2]; [5],0.4
same,pI,[1],10.76
same,pKa (—COOH group),[1],2.17
NC(=O)C[C@H](N)C(=O)O [Asparagine],pI,[1],5.41
same,pKa (—COOH group),[1],2.02
N[C@@H](CC(=O)O)C(=O)O [Aspartic acid],pI,[1],2.77
N[C@@H](CS)C(=O)O [Cysteine],pI,[1],5.07
same,pKa (—NH3 group),[1],10.28
"NCCCC(=O)O [GABA, γ-aminobutyric acid]",L* (D65),[2]; [6],33.1
same,a* (D65),[2]; [6],−0.3
same,L* (D65),[2]; [4],26.5
same,a* (D65),[2]; [4],−0.3
same,b* (D65),[2]; [4],−0.9
same,L* (D65),[2]; [5],87.1
same,a* (D65),[2]; [5],−0.1
same,pI,[1],7.3
same,pKa (—COOH group),[1],4.23
same,State of sample after the end of the measurement,[3],transitioned to a transparent liquid state
same,Deliquescence,[3],have deliquescence
same,Appearance after storage,[3],maintained the degree of transparency
N[C@@H](CCC(=O)O)C(=O)O [Glutamic acid],L* (D65),[2]; [6],53.6
same,a* (D65),[2]; [6],−0.7
same,pI,[1],3.22
NCC(=O)O [Glycine],pI,[1],5.97
N[C@@H](Cc1c[nH]cn1)C(=O)O [Histidine],pI,[1],7.59
O=C(O)[C@@H]1C[C@@H](O)CN1 [Hydroxyproline],pKa (—COOH group),[1],1.82
same,pKa (—NH3 group),[1],9.65
CC[C@H](C)[C@H](N)C(=O)O [Isoleucine],pI,[1],6.02
same,pKa (—COOH group),[1],2.36
NCCCC[C@H](N)C(=O)O [Lysine],pI,[1],9.74
same,pKa (—COOH group),[1],2.18
"N[C@@H](CCC(=O)O)C(=O)[O-].[Na+] [MSG, Na glutamate]",L* (D65),[2]; [4],33.7
same,a* (D65),[2]; [4],−0.1
same,b* (D65),[2]; [4],−0.2
same,L* (D65),[2]; [5],84.8
same,a* (D65),[2]; [5],−0.2
same,b* (D65),[2]; [5],1.1
same,State of sample after the end of the measurement,[3],transitioned to a transparent liquid state
same,Deliquescence,[3],have deliquescence
same,Appearance after storage,[3],became a whitened film form
CSCC[C@H](N)C(=O)O [Methionine],pI,[1],5.74
same,pKa (—COOH group),[1],2.28
same,pKa (—NH3 group),[1],9.21
N[C@@H](Cc1ccccc1)C(=O)O [Phenylalanine],pI,[1],5.48
same,pKa (—COOH group),[1],1.83
same,pKa (—NH3 group),[1],9.13
O=C(O)[C@@H]1CCCN1 [Proline],pI,[1],6.3
O=C1CC[C@@H](C(=O)O)N1 [Pyroglutamic acid],pI,[1],5.68
N[C@@H](CO)C(=O)O [Serine],pI,[1],5.68
"O=P([O-])([O-])[O-].[Na+].[Na+].[Na+] [TSP, trisodium phosphate, reference compound]",L* (D65),[2]; [4],92.4
same,a* (D65),[2]; [4],−0.1
same,b* (D65),[2]; [4],0.1
same,L* (D65),[2]; [5],98.5
same,a* (D65),[2]; [5],0.0
same,b* (D65),[2]; [5],0.5
C[C@@H](O)[C@H](N)C(=O)O [Threonine],pI,[1],5.6
same,pKa (—COOH group),[1],2.09
N[C@@H](Cc1c[nH]c2ccccc12)C(=O)O [Tryptophan],pI,[1],5.89
same,pKa (—COOH group),[1],2.83
N[C@@H](Cc1ccc(O)cc1)C(=O)O [Tyrosine],pI,[1],5.66
CC(C)[C@H](N)C(=O)O [Valine],pI,[1],5.96
same,pKa (—NH3 group),[1],9.62
